Activity calls are given as the source filed them.
Assays:
[1] = molecular target: Insulin-like growth factor 1 receptor (Homo sapiens) (UniProt P08069); assay: Inhibition of IGF1R (unknown origin) at 10 uM after 40 mins by scintillation counting analysis
[2] = molecular target: Proto-oncogene tyrosine-protein kinase Src (Homo sapiens) (UniProt P12931); assay: Inhibition of c-SRC (unknown origin) at 10 uM after 40 mins by scintillation counting analysis
[3] = molecular target: Macrophage-stimulating protein receptor (Homo sapiens) (UniProt Q04912); assay: Inhibition of RON (unknown origin) at 10 uM after 40 mins by scintillation counting analysis
[4] = tested on: Serine/threonine-protein kinase B-raf (Homo sapiens), P15056 [V600E]; assay: Inhibition of BRAF V599E mutant (unknown origin) at 10 uM after 40 mins by scintillation counting analysis
[5] = molecular target: Glycogen synthase kinase-3 beta (Homo sapiens) (UniProt P49841); assay: Inhibition of GSK3b (unknown origin) at 10 uM after 40 mins by scintillation counting analysis
[6] = molecular target: T1, Macrophage colony-stimulating factor 1 receptor (Homo sapiens, UniProt P07333); assay: Inhibition of FMS (unknown origin) after 40 mins by scintillation counting analysis
[7] = molecular target: Tyrosine-protein kinase JAK1 (Homo sapiens) (UniProt P23458); assay: Inhibition of JAK1 (unknown origin) at 10 uM after 40 mins by scintillation counting analysis
[8] = molecular target: T1, Macrophage colony-stimulating factor 1 receptor; assay: Inhibition of FMS (unknown origin) at 10 uM after 40 mins by scintillation counting analysis
[9] = molecular target: Cyclin-dependent kinase 1/cyclin B (Homo sapiens) (UniProt P06493+P14635+Q8WWL7+O95067); assay: Inhibition of CDK1/cyclin B (unknown origin) at 10 uM after 40 mins by scintillation counting analysis; format: protein-complex assay
[10] = molecular target: Tyrosine-protein kinase ABL1 (Homo sapiens) (UniProt P00519); assay: Inhibition of ABL1 (unknown origin) at 10 uM after 40 mins by scintillation counting analysis
[11] = molecular target: Serine/threonine-protein kinase B-raf (Homo sapiens, UniProt P15056); assay: Inhibition of BRAF (unknown origin) at 10 uM after 40 mins by scintillation counting analysis
[12] = molecular target: cAMP-dependent protein kinase (PKA) (Homo sapiens) (UniProt P22694+P17612+P22612); assay: Inhibition of PKA (unknown origin) at 10 uM after 40 mins by scintillation counting analysis; format: protein assay
[13] = molecular target: Dual specificity mitogen-activated protein kinase kinase 1 (Homo sapiens) (UniProt Q02750); assay: Inhibition of MEK1 (unknown origin) at 10 uM after 40 mins by scintillation counting analysis
[14] = species: Homo sapiens; assay: Inhibition of Pi3K (unknown origin) at 10 uM after 40 mins by scintillation counting analysis
[15] = tested on: U-937; assay: Antiproliferative activity against human U937 cells after 24 hrs by MTT assay; format: functional
[16] = molecular target: Hepatocyte growth factor receptor (Homo sapiens) (UniProt P08581); assay: Inhibition of c-MET (unknown origin) at 10 uM after 40 mins by scintillation counting analysis
[17] = molecular target: Epidermal growth factor receptor (Homo sapiens) (UniProt P00533); assay: Inhibition of EGFR (unknown origin) at 10 uM after 40 mins by scintillation counting analysis
[18] = molecular target: Vascular endothelial growth factor receptor 2 (Homo sapiens) (UniProt P35968); assay: Inhibition of VEGFR2 (unknown origin) at 10 uM after 40 mins by scintillation counting analysis
[19] = molecular target: Fibroblast growth factor receptor 3 (Homo sapiens) (UniProt P22607); assay: Inhibition of FGFR3 (unknown origin) at 10 uM after 40 mins by scintillation counting analysis
[20] = molecular target: Cyclin-dependent kinase 2/cyclin E (Homo sapiens) (UniProt P24864+P24941+O96020); assay: Inhibition of CDK2/cyclin E (unknown origin) at 10 uM after 40 mins by scintillation counting analysis; format: protein-complex assay
[21] = molecular target: Tyrosine-protein kinase Lck (Homo sapiens) (UniProt P06239); assay: Inhibition of LCK (unknown origin) at 10 uM after 40 mins by scintillation counting analysis
[22] = molecular target: Tyrosine-protein kinase JAK3 (Homo sapiens) (UniProt P52333); assay: Inhibition of Jak3 (unknown origin) at 10 uM after 40 mins by scintillation counting analysis
[23] = molecular target: Tyrosine-protein kinase HCK (Homo sapiens) (UniProt P08631); assay: Inhibition of HCK (unknown origin) at 10 uM after 40 mins by scintillation counting analysis
[24] = molecular target: Protein kinase C (PKC) (Homo sapiens) (UniProt O94806+P41743+P17252+P05129+Q05655+P05771+Q05513+Q02156+P24723+Q15139+Q04759); assay: Inhibition of PKC (unknown origin) at 10 uM after 40 mins by scintillation counting analysis
[25] = molecular target: Tyrosine-protein kinase Lyn (Homo sapiens, UniProt P07948); assay: Inhibition of Lyn (unknown origin) at 10 uM after 40 mins by scintillation counting analysis
[26] = molecular target: Fibroblast growth factor receptor 2 (Homo sapiens) (UniProt P21802); assay: Inhibition of FGFR2 (unknown origin) at 10 uM after 40 mins by scintillation counting analysis
[27] = molecular target: Serine/threonine-protein kinase PLK1 (Homo sapiens) (UniProt P53350); assay: Inhibition of PLK1 (unknown origin) at 10 uM after 40 mins by scintillation counting analysis
[28] = molecular target: ALK tyrosine kinase receptor (Homo sapiens) (UniProt Q9UM73); assay: Inhibition of ALK (unknown origin) at 10 uM after 40 mins by scintillation counting analysis
[29] = molecular target: Vascular endothelial growth factor receptor 1 (Homo sapiens) (UniProt P17948); assay: Inhibition of FLT1 (unknown origin) at 10 uM after 40 mins by scintillation counting analysis
[30] = molecular target: Mast/stem cell growth factor receptor Kit (Homo sapiens) (UniProt P10721); assay: Inhibition of c-Kit (unknown origin) at 10 uM after 40 mins by scintillation counting analysis
[31] = molecular target: Serine/threonine-protein kinase mTOR (Homo sapiens, UniProt P42345); assay: Inhibition of mTOR (unknown origin) at 10 uM after 40 mins by scintillation counting analysis
[32] = molecular target: Aurora kinase A (Homo sapiens) (UniProt O14965); assay: Inhibition of Aurora A (unknown origin) at 10 uM after 40 mins by scintillation counting analysis
[33] = molecular target: Mitogen-activated protein kinase 10 (Homo sapiens) (UniProt P53779); assay: Inhibition of JNK3 (unknown origin) at 10 uM after 40 mins by scintillation counting analysis
[34] = molecular target: RAF proto-oncogene serine/threonine-protein kinase (Homo sapiens, UniProt P04049); assay: Inhibition of RAF1 (unknown origin) at 10 uM after 40 mins by scintillation counting analysis
[35] = molecular target: Focal adhesion kinase 1 (Homo sapiens) (UniProt Q05397); assay: Inhibition of FAK (unknown origin) at 10 uM after 40 mins by scintillation counting analysis
[36] = molecular target: Tyrosine-protein kinase SYK (Homo sapiens) (UniProt P43405); assay: Inhibition of SYK (unknown origin) at 10 uM after 40 mins by scintillation counting analysis

T1 sequence (P07333 whole entry): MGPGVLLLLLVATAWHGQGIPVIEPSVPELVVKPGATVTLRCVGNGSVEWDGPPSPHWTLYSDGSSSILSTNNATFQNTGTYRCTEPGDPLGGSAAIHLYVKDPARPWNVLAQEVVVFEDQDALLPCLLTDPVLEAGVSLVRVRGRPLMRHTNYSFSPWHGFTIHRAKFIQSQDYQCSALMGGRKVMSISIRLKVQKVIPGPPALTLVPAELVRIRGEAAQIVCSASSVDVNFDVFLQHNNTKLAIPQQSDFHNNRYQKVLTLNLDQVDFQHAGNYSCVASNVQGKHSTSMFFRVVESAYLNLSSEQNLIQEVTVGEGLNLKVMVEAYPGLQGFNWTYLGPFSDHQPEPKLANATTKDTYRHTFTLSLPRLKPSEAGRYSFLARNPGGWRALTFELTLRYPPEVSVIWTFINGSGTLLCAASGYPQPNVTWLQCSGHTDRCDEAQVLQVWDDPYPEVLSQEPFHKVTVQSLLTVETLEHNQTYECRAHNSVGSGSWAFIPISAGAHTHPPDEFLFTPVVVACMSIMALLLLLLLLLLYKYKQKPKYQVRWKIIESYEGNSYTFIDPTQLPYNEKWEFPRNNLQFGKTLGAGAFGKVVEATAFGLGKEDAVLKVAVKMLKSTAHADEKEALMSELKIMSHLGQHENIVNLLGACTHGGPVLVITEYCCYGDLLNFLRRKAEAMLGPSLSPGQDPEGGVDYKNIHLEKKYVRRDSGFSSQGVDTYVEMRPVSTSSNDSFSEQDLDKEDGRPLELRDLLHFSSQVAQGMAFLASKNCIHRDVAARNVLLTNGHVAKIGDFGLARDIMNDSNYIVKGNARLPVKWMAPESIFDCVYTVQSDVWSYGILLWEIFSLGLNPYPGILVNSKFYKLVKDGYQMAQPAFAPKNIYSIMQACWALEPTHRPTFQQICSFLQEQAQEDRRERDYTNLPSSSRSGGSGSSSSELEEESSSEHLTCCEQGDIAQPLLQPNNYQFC
Tyrosine-protein kinase JAK3 (Homo sapiens), sequence (P52333 whole entry): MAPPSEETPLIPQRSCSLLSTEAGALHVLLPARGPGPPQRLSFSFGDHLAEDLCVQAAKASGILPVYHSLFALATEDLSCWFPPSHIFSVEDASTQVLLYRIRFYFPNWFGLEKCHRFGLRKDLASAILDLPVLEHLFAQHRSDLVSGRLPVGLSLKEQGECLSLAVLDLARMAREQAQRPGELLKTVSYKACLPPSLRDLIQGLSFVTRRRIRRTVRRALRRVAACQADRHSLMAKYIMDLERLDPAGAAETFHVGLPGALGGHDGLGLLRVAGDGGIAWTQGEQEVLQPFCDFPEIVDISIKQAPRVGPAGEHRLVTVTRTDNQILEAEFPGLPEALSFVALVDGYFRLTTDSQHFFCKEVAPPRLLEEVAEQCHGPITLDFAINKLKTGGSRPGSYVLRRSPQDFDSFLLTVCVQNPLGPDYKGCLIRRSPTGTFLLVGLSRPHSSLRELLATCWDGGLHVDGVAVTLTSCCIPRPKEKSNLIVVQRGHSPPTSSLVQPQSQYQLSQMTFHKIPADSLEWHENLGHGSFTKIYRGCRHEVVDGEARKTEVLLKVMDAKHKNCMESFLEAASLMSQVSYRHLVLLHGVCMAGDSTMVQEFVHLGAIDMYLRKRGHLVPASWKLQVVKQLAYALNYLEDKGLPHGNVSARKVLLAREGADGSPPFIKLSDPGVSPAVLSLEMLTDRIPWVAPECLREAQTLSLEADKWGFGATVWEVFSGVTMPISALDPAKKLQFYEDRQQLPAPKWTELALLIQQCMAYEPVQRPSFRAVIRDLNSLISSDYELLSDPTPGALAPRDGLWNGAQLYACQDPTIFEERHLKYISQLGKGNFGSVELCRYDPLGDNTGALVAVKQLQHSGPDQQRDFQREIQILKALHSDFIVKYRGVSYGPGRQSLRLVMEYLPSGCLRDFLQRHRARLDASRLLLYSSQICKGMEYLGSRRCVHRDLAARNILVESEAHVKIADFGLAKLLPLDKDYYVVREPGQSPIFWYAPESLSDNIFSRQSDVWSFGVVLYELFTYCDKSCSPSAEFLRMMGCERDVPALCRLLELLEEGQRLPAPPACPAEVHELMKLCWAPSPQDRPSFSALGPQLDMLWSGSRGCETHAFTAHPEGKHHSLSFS
Vascular endothelial growth factor receptor 2 (Homo sapiens), sequence (P35968 whole entry): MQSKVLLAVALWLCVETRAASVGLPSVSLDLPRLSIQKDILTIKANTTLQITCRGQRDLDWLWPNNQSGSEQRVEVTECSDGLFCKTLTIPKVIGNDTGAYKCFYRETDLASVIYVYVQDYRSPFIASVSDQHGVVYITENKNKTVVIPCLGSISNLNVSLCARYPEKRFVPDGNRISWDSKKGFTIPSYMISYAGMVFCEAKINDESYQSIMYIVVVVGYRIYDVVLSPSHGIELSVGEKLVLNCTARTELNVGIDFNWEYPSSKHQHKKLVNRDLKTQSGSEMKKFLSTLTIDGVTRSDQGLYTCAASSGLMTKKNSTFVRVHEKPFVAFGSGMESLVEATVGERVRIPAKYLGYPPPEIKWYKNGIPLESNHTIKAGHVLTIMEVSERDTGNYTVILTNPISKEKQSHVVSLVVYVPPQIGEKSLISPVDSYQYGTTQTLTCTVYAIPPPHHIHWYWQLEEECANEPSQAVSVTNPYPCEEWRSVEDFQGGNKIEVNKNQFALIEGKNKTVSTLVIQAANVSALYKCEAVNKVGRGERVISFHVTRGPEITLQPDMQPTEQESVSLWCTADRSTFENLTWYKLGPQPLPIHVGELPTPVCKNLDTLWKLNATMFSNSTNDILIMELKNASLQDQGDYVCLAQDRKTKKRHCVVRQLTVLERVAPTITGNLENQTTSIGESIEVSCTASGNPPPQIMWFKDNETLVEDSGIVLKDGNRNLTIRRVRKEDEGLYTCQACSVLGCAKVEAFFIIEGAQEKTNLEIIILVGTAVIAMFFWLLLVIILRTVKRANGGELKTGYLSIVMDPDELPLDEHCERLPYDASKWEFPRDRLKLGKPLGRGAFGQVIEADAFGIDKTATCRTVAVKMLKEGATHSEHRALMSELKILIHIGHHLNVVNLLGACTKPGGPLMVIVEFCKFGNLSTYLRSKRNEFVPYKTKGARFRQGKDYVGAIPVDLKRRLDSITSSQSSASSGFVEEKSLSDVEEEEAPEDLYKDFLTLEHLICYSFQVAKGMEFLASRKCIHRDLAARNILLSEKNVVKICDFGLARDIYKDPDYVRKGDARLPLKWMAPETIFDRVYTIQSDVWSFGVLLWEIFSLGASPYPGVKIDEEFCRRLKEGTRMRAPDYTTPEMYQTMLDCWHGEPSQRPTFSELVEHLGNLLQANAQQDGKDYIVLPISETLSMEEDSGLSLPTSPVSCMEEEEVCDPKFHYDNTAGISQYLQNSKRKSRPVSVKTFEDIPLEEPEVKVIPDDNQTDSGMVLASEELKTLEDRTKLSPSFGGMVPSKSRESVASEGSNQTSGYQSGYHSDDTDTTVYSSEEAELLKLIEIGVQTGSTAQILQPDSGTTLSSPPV
Serine/threonine-protein kinase B-raf (Homo sapiens), P15056 [V600E], sequence (P15056 whole entry V600E): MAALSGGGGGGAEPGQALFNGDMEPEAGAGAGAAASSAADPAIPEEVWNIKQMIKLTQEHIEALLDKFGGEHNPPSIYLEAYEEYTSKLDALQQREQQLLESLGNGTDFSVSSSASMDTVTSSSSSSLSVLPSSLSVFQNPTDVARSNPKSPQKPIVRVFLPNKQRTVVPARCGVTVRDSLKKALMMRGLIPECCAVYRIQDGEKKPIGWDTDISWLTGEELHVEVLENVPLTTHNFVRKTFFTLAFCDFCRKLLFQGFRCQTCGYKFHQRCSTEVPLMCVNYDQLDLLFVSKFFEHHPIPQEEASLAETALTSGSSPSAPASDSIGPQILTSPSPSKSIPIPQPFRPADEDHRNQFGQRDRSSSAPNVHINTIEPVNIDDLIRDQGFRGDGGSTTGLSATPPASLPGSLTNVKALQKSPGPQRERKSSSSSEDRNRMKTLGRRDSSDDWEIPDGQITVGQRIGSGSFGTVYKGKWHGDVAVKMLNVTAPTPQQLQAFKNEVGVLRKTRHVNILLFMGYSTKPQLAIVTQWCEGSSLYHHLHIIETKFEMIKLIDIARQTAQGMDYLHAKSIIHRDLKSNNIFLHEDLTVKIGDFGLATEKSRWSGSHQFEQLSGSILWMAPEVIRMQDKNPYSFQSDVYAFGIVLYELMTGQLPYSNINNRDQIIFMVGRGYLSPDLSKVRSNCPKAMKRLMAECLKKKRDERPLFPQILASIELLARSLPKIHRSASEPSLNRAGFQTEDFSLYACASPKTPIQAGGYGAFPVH
Fibroblast growth factor receptor 3 (Homo sapiens), sequence (P22607 23-806 limits assumed): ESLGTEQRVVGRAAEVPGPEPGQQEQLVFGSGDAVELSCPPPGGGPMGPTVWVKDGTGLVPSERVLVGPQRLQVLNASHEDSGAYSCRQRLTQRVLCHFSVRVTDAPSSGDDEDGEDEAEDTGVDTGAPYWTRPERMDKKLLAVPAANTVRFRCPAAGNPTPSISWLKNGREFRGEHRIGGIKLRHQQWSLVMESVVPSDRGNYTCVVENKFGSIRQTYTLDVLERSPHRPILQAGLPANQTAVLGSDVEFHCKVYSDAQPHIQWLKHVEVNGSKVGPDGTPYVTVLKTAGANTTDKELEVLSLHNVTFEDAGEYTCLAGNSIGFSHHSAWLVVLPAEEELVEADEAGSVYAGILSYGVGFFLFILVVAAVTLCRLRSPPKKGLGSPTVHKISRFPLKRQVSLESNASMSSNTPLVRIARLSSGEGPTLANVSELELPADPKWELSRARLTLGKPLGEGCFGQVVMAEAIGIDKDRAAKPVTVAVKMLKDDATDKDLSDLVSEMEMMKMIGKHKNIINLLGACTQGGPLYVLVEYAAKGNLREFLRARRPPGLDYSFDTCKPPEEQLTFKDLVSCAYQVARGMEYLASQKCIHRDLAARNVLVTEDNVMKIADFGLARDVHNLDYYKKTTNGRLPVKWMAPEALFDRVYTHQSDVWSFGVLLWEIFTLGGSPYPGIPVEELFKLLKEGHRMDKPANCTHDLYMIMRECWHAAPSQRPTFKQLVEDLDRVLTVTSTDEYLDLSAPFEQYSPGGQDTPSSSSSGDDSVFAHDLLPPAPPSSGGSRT
Serine/threonine-protein kinase B-raf, sequence (P15056 whole entry): as the sequence (P15056 whole entry V600E) above, with E600V counted along it

Cc1ccccc1C(=O)Nc1cnoc1C
inactive: inhibition [1] | inhibition [2] | inhibition [3] | inhibition [4] | inhibition [5] | inhibition [7] | inhibition [8] | inhibition [9] | inhibition [10] | inhibition [11] | inhibition [12] | inhibition [13] | inhibition [14] | inhibition [16] | inhibition [17] | inhibition [18] | inhibition [19] | inhibition [20] | inhibition [21] | inhibition [22] | inhibition [23] | inhibition [24] | inhibition [25] | inhibition [26] | inhibition [27] | inhibition [28] | inhibition [29] | inhibition [30] | inhibition [31] | inhibition [32] | inhibition [33] | inhibition [34] | inhibition [35] | inhibition [36]
216 nM: IC50 [6]
active: GI50 [15]

Source: ChEMBL document CHEMBL3616395, “Discovery of 4-arylamido 3-methyl isoxazole derivatives as novel FMS kinase inhibitors” (Eur J Med Chem, 2015)
